Experimental data as given in article PMC10064984, “Anti-cyclooxygenase, anti-glycation, and anti-skin aging effect of Dendrobium officinale flowers’ aqueous extract and its phytochemical validation in aging” (Frontiers in Immunology, 2023).
Several values for one entry are separate records, joined by “and”; a condition that tells them apart may be missing. Equal values may be shown once. Read-outs that look alike come from different tables or passages of the source. Each block holds one molecule with its values, some of them ahead of it.

Assays:
Assay type in all cases: biochemical
[1] = Fluorescent AGEs formation in a BSA-fructose/glucose system; conditions: for inhibition of fluorescent AGEs formation (BSA-抗糖化), single replicate: individual replicate; for inhibition of fluorescent AGEs formation (BSA-抗糖化), 平均 (mean): mean of 3 replicates; for IC50: mean ± SD, n = 3, read-out: BSA-glycation IC50
Protocol: Glycated protein was prepared in vitro by incubating BSA in the presence of D-glucose (GLC) and D-fructose (FRC). The DOF extract and specific standards were dissolved in DMSO:water (1:4). […] The assay was performed in triplicate, and AG was used as a positive control. The percentage inhibition of fluorescent AGE formation was calculated using the following equation: […] Where IF sample is fluorescence intensity in the presence of samples and BSA, IF sample control is fluorescence intensity in the presence of samples without BSA, IF control is fluorescence intensity without samples, and IF blank control is fluorescence intensity without samples and BSA.

[2] = FRAP total antioxidant capacity;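 further: colourimetric FRAP kit assay read as absorbance in 96-well plates, values as mM FeSO4 via standard curve, EC1 being sample concentration matching 1.0 mmol/L FeSO4, Trolox positive control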
[3] = ABTS·+ decolourisation capacity; conditions: mean ± SD, n = 3
Protocol: Fast colourimetric methods were slightly modified for the in vitro assessment of DPPH· scavenging ([19]), ABTS·+ decolourisation capacity ([20]), and total antioxidant capacity of FRAP ([21]). The stock solutions of derivatisation reagents were diluted as follows before measurement: DPPH was diluted with absolute ethanol until the absorbance was 0.8 ± 0.05 at λ = 517 nm. ABTS working solution was prepared with phosphate buffer (0.2 M, pH 7.4) to display absorbance of 0.8 ± 0.05 at λ = 729 nm, based on a previous study ([22]). The FRAP solution was prepared according to the instructions of the FRAP kit. Absorbances were measured using an automatic microplate reader (Molecular Group Ltd., USA), and all analyses were performed using 96-well plates. All measurements were performed in triplicate, and Trolox was used as a positive control.
For ABTS·+ decolourisation capacity, 100 μl of ABTS working solution was mixed with 200 μl of sample solution, and the absorbance was recorded after 10 min at 729 nm. Phosphate buffer (0.2 M, pH 7.4) was used as a negative control.
DPPH· and ABTS·+ radical scavenging activities of the tested sample were both calculated using the following formula:
% inhibition = (A control − A sample)/A control × 100
Where A control and A sample represent the absorbance of the control and test samples, respectively. The IC50 was calculated graphically from the dose-inhibition curves.

[4] = DPPH· scavenging; conditions: mean ± SD, n = 3;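 further: colourimetric DPPH radical scavenging in 96-well plates, absorbance read-out, percent inhibition relative to ethanol control absorbance, IC50 derived graphically from dose-inhibition curves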
[5] = molecular target: T1, COX-2 (Homo sapiens, UniProt P35354); assay: Anti-COX-2 assay (COX-2 Inhibitor Screening Kit)
T1 construct: purchased Beyotime S0168
T1 sequence (P35354 18-604): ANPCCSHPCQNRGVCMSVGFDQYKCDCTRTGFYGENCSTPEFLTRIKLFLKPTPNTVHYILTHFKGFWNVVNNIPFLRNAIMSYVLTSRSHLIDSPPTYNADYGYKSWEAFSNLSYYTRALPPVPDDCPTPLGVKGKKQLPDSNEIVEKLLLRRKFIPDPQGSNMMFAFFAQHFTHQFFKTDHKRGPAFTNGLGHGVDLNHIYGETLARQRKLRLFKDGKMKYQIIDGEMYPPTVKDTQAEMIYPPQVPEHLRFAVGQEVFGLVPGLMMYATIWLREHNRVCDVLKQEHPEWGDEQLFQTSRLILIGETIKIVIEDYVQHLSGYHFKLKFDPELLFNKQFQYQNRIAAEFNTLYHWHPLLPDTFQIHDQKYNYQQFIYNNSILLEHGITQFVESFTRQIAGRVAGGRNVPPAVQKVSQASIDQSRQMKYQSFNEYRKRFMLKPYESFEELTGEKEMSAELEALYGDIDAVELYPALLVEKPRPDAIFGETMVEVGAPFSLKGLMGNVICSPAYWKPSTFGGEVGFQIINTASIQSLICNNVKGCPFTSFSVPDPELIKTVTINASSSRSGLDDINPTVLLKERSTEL

[6] = lower part of sheet (compound series)

- IC50 [1]: 276 ± 33 µM
- IC50 [3]: 34.31 ± 0.1 µM
- IC50 [4]: > 5000 µM
- COX-2 inhibition (in words) [5]: no inhibitory effects
- COX-2 inhibition ([5]; 3.125 μM, single replicates, listed as T13, 3.125 µM): 9.26% and 13.01% and -4.90%
- COX-2 inhibition ([5]; 6.25 μM, single replicates, listed as T13, 6.25 µM): 7.55% and 7.65% and -2.11%
- COX-2 inhibition ([5]; 12.5 μM, single replicates, listed as T13, 12.5 µM): 5.53% and -11.45% and -30.89%
- COX-2 inhibition ([5]; 25 μM, single replicates, listed as T13, 25 µM): -6.59% and -8.12% and -23.58%
- COX-2 inhibition ([5]; 50 μM, single replicates, listed as T13, 50 µM): -22.46% and -22.25% and -29.37%
- COX-2 inhibition ([5]; 100 μM, single replicates, listed as T13, 100 µM): -33.58% and -17.93% and -41.32%
- COX-2 inhibition ([5]; 200 μM, single replicates, listed as T13, 200 µM): -24.47% and -35.20% and -49.99%
SMILES: O=c1c(O[C@@H]2O[C@H](CO)[C@@H](O)[C@H](O)[C@H]2O)c(-c2ccc(O)cc2)oc2cc(O)cc(O)c12 [compound 31, Astragalin]
- inhibition of fluorescent AGEs formation (BSA-抗糖化), single replicate ([1]; 15.625 µM, listed as T13, 15.625 µM): 3.97% and 2.43% and 3.28%
- inhibition of fluorescent AGEs formation (BSA-抗糖化), 平均 (mean) ([1]; 15.625 µM): 3.23%
- inhibition of fluorescent AGEs formation (BSA-抗糖化), single replicate ([1]; 31.25 µM, listed as T13, 31.25 µM): 6.47% and 9.23% and 6.65%
- inhibition of fluorescent AGEs formation (BSA-抗糖化), 平均 (mean) ([1]; 31.25 µM): 7.45%
- inhibition of fluorescent AGEs formation (BSA-抗糖化), single replicate ([1]; 62.5 µM, listed as T13, 62.5 µM): 16.61% and 18.46% and 18.15%
- inhibition of fluorescent AGEs formation (BSA-抗糖化), 平均 (mean) ([1]; 62.5 µM): 17.74%
- inhibition of fluorescent AGEs formation (BSA-抗糖化), single replicate ([1]; 125 µM, listed as T13, 125 µM): 25.98% and 33.83% and 29.94%
- inhibition of fluorescent AGEs formation (BSA-抗糖化), 平均 (mean) ([1]; 125 µM): 29.92%
- inhibition of fluorescent AGEs formation (BSA-抗糖化), single replicate ([1]; 250 µM, listed as T13, 250 µM): 39.66% and 53.40% and 48.31%
- inhibition of fluorescent AGEs formation (BSA-抗糖化), 平均 (mean) ([1]; 250 µM): 47.12%
- inhibition of fluorescent AGEs formation (BSA-抗糖化), single replicate ([1]; 500 µM, listed as T13, 500 µM): 65.95% and 67.35% and 67.23%
- inhibition of fluorescent AGEs formation (BSA-抗糖化), 平均 (mean) ([1]; 500 µM): 66.84%
- inhibition of fluorescent AGEs formation (BSA-抗糖化), single replicate ([1]; 1000 µM, listed as T13, 1000 µM): 79.55% and 78.97% and 78.39%
- inhibition of fluorescent AGEs formation (BSA-抗糖化), 平均 (mean) ([1]; 1000 µM): 78.97%
- inhibition of fluorescent AGEs formation (BSA-抗糖化), single replicate ([1]; 2000 µM, listed as T13, 2000 µM): 89.49% and 89.99% and 89.93%
- inhibition of fluorescent AGEs formation (BSA-抗糖化), 平均 (mean) ([1]; 2000 µM): 89.80%
- inhibition of fluorescent AGEs formation (BSA-抗糖化), single replicate ([1]; 4000 µM (series head 'T9 4000µM', 2-fold dilutions), listed as T13): 94.89% and 93.91% and 94.80%
- inhibition of fluorescent AGEs formation (BSA-抗糖化), 平均 (mean) ([1]; 4000 µM): 94.53%
- FRAP EC1 [2, 6]: >5000 µM

- IC50 [1]: 209 ± 3.1 µM
- IC50 [3]: 44.7 ± 1.52 µM
- IC50 [4]: 2370 µM
- inhibition at 31.25 µM ([5]; 31.25 μM, single replicates): 5.99%
- COX-2 inhibition ([5]; 31.25 μM, single replicates, listed as T14, 31.25 µM): 4.35%
- COX-2 inhibition ([5]; 62.5 μM, single replicates, listed as T14, 62.5 µM): -8.14% and 8.77% and -5.55%
- COX-2 inhibition ([5]; 125 μM, single replicates, listed as T14, 125 µM): 16.41% and 9.67% and 1.80%
- COX-2 inhibition ([5]; 250 μM, single replicates, listed as T14, 250 µM): 18.89% and 38.58% and 20.11%
- inhibition at 500 µM ([5]; 500 μM, single replicates): 53.6%
- COX-2 inhibition ([5]; 500 μM, single replicates, listed as T14, 500 µM): 61.95% and 42.08%
- inhibition at 1000 µM ([5]; 1000 μM, single replicates): 77.5%
- COX-2 inhibition ([5]; 1000 μM, single replicates, listed as T14, 1000 µM): 79.82% and 70.09%
- inhibition at 2000 µM ([5]; 2000 μM (2mM), single replicates): 76.1%
- COX-2 inhibition ([5]; 2000 μM (2mM), single replicates, listed as T14): 78.14% and 68.80%
- IC50 ([5]; mean ± SD, n = 3, nd, not detected, read-out: COX-2 IC50): 535 ± 150 µM
- IC50 ([5]; supplement sheet COX, read-out: COX-2 IC50, single replicate): 515 µM and 396 µM and 694 µM
SMILES: COc1cc(-c2oc3cc(O)cc(O)c3c(=O)c2OC2OC(CO)C(O)C(O)C2O)ccc1O (stereo not drawn) [compound 32, Isorhamnetin-3-O-glucoside]
- inhibition of fluorescent AGEs formation (BSA-抗糖化), single replicate ([1]; 15.625 µM, listed as T14, 15.625 µM): 6.47% and 9.81% and 6.23%
- inhibition of fluorescent AGEs formation (BSA-抗糖化), 平均 (mean) ([1]; 15.625 µM): 7.50%
- inhibition of fluorescent AGEs formation (BSA-抗糖化), single replicate ([1]; 31.25 µM, listed as T14, 31.25 µM): 13.37% and 12.51% and 13.56%
- inhibition of fluorescent AGEs formation (BSA-抗糖化), 平均 (mean) ([1]; 31.25 µM): 13.15%
- inhibition of fluorescent AGEs formation (BSA-抗糖化), single replicate ([1]; 62.5 µM, listed as T14, 62.5 µM): 22.22% and 24.18% and 24.11%
- inhibition of fluorescent AGEs formation (BSA-抗糖化), 平均 (mean) ([1]; 62.5 µM): 23.51%
- inhibition of fluorescent AGEs formation (BSA-抗糖化), single replicate ([1]; 125 µM, listed as T14, 125 µM): 35.72% and 35.84% and 36.17%
- inhibition of fluorescent AGEs formation (BSA-抗糖化), 平均 (mean) ([1]; 125 µM): 35.91%
- inhibition of fluorescent AGEs formation (BSA-抗糖化), single replicate ([1]; 250 µM, listed as T14, 250 µM): 54.28% and 53.83% and 54.39%
- inhibition of fluorescent AGEs formation (BSA-抗糖化), 平均 (mean) ([1]; 250 µM): 54.17%
- inhibition of fluorescent AGEs formation (BSA-抗糖化), single replicate ([1]; 500 µM, listed as T14, 500 µM): 70.40% and 70.98% and 71.44%
- inhibition of fluorescent AGEs formation (BSA-抗糖化), 平均 (mean) ([1]; 500 µM): 70.94%
- inhibition of fluorescent AGEs formation (BSA-抗糖化), single replicate ([1]; 1000 µM, listed as T14, 1000 µM): 83.59% and 83.42% and 83.56%
- inhibition of fluorescent AGEs formation (BSA-抗糖化), 平均 (mean) ([1]; 1000 µM): 83.53%
- inhibition of fluorescent AGEs formation (BSA-抗糖化), single replicate ([1]; 2000 µM, listed as T14, 2000 µM): 91.04% and 91.39% and 91.09%
- inhibition of fluorescent AGEs formation (BSA-抗糖化), 平均 (mean) ([1]; 2000 µM): 91.17%
- inhibition of fluorescent AGEs formation (BSA-抗糖化), single replicate ([1]; 4000 µM (series head 'T9 4000µM', 2-fold dilutions), listed as T14): 95.57% and 95.55% and 95.41%
- inhibition of fluorescent AGEs formation (BSA-抗糖化), 平均 (mean) ([1]; 4000 µM): 95.51%
- FRAP EC1 [2, 6]: 2757.3 ± 103.8 µM
- FRAP EC1 ([2]; mean ± SD, n = 3): 2,757.3 ± 103.8 μM
